Source: patent publication US8664217B2, “Benzodiazepine compound and pharmaceutical composition” (Otsuka Pharmaceutical Co., Ltd., priority 2008, dated 2014)
Counter-ions that a name gives are not always drawn.

The molecules below were run against T1, human GIRK1/4 channels (Homo sapiens, UniProt P48544+P48549) (assay: Measurement of human GIRK1/4 channel current by whole-cell patch clamp method (human GIRK1/4-expressing CHO cell line)). Conditions: whole-cell patch clamp, human GIRK1/4-expressing CHO cells; step end current at −120 mV; test compound 0.1, 1, 10 μM; read-out: GIRK¼ IC50.
T1 construct: Full-length human GIRK1 cDNA was cloned from HuH cell- and HeLa cell-derived cDNA libraries; Full-length GIRK4 cDNA was amplified from a human heart cDNA library; expressed in transfected cells; host or cells: FLP-IN-CHO cells (Invitrogen)
T1 sequence (P48549 1-501): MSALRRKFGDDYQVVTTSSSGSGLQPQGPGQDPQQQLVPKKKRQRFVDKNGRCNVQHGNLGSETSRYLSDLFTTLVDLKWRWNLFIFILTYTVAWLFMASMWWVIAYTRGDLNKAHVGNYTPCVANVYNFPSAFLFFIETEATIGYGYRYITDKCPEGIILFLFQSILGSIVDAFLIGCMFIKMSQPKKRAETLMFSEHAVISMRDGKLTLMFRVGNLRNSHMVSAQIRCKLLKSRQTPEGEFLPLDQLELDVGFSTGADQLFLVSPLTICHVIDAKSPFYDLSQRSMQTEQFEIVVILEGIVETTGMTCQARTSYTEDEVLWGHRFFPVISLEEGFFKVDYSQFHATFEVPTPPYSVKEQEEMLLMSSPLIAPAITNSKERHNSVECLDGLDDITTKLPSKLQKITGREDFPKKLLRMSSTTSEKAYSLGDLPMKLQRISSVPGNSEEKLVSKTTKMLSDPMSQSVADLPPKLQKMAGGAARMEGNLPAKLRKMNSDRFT
T1 sequence (P48544 1-419): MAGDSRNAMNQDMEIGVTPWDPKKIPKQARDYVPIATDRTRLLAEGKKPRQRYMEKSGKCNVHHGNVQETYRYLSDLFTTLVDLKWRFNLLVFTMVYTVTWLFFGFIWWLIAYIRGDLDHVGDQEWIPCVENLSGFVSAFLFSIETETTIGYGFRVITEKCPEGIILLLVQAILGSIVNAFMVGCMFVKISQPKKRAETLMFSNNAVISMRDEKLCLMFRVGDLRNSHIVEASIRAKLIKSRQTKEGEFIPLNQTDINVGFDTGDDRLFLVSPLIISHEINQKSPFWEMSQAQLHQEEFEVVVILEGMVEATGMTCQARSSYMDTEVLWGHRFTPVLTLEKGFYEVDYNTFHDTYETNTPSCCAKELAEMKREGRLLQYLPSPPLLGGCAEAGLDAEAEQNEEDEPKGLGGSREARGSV
Assay type: cell-based
Method: (2) Production of CHO Cell Line Expressing Human GIRK1/4
CHO cell lines stably expressing human GIRK1/4 channels were prepared in the following manner.
Full-length human GIRK1 cDNA was cloned from HuH cell- and HeLa cell-derived cDNA libraries. Full-length GIRK4 cDNA was amplified from a human heart cDNA library (produced by Clontech Laboratories, Inc.) by PCR using synthetic primers shown in Table 1, and cloned into the Eco-RI restriction enzyme site of pCR-Blunt (produced by Invitrogen Corporation) or into the HincII site of pUC118 (produced by Takara Bio, Inc.).
The obtained human GIRK1 and GIRK4 cDNA sequences correspond to known sequences (NCBI database: GIRK1 (NM_002239) and GIRK4 (NM_000890) respectively). The obtained GIRK1 and GIRK4 cDNA sequences were cloned into the Eco-RI restriction enzyme site of pCR-Blunt (available from Invitrogen Corporation) or into the HincII site of pUC118 (available from Takara Bio, Inc.). A GIRK4 expression vector was constructed by insertion into the BamHI-XhoI site of pcDNA5/FRT. A GIRK1 expression vector was constructed by insertion into the KpnI-XhoI site of pcDNA3.1(+) or pCAG_neo. FLP-IN-CHO cells (produced by Invitrogen Corporation) were transfected with human GIRK1 and GIRK4 expression vectors by using Lipofectamine 2000 (produced by Invitrogen Corporation) according to the protocol enclosed with the reagent or using an electronic induction method (“Nucleofector Kit-T”, produced by Amaxa). First, the cells transfected with the GIRK4 expression vector were cultured in a 10% serum-containing F12 medium (produced by Sigma) supplemented with 600 μg/ml of hygromycin in an incubator with 5% carbon dioxide at 37° C. Then the cells expressing GIRK4 were transfected with the GIRK1 expression vector and were cultured in 10% serum-containing F12 medium supplemented with 350 μg/ml of G418 and 600 μg/ml of hygromycin in an incubator with 5% carbon dioxide at 37° C. to select GIRK1/4 expressing cell lines. Cell populations whose growth was observed after about 2 weeks were isolated using cloning rings, and the obtained single colonies were proliferated. RNA was extracted from single colonies, and single-stranded cDNA was synthesized by a cDNA synthesis kit (produced by Invitrogen Corporation), and the amount of expression was quantified at the mRNA level by real-time PCR (Applied Biosystems, Ltd.). Finally, the expressed current was analyzed by patch clamp method described below. The cell lines expressing a current of 500 pA or more per cell were selected as channel-expressing cell lines for activity measurement by patch clamping method.
(4) Measurement of Ion Channel Current by Patch Clamp Method (Human GIRK1/4-Expressing CHO-K1 Cell Line)
An experiment was carried out using a patch clamp setup at room temperature (20 to 26° C.). A perfusion chamber having a diameter of 20 mm (flow rate: about 5 ml/min) was mounted on the stage of a phase-contrast inverted microscope (produced by Nikon Corporation) placed on a vibration isolation table. A poly-L-lysine (produced by Sigma)-coated coverslip (diameter: 15 mm, produced by Matsunami Glass Ind., Ltd.) on which human GIRK1/4-expressing cells were cultured was placed in the perfusion chamber.
Hyperpolarizing stimulation pulses were applied and ionic current was recorded using a patch clamp amplifier (EPC-7 or EPC-7 PLUS, manufactured by HEKA) and a personal computer (manufactured by IBM Corp.) in which software for data acquisition and analysis of ion channel current (PULSE 8.77, manufactured by HEKA) was installed. The current was measured in the whole-cell configuration of the patch-clamp technique. The tip (resistance: 2 to 4 MΩ) of a borosilicate glass pipette (produced by Sutter Instrument Co.) was gently placed on the cell membrane by using a three-dimensional mechanical micromanipulator (produced by Shoshin EM Corporation). […] Subsequently, stronger suction was applied to break the cell membrane. […]

Compound	IC50 [nM]
CN1C(=O)C(C)(C)C(=O)N(C)c2cc(OCCCN(CCc3cccnc3)Cc3ccncc3)ccc21 [Example 19, 1,3,3,5-tetramethyl-7-{3-[(2-pyridin-3-ylethyl)pyridin-4-ylmethylamino]propoxy}-1,5-dihydrobenzo[b][1,4]diazepine-2,4-dione trihydrochloride]	1400
CCN1C(=O)C(C)(C)C(=O)N(C)c2cc(OCCCN(CCn3ccc4occc4c3=O)Cc3cnccc3C)ccc21 [Example 590, 1-ethyl-3,3,5-trimethyl-7-(3-{(4-methylpyridin-3-ylmethyl)-[2-(4-oxo-4H-furo[3,2-c]pyridin-5-yl)ethyl]-amino}propoxy)-1,5-dihydrobenzo[b][1,4]diazepine-2,4-dione]	2400
CCN1C(=O)C(C)(C)C(=O)N(C)c2cc(OCCCN(CCn3ccc4ccsc4c3=O)Cc3ccncc3)ccc21 [Example 68, 1-ethyl-3,3,5-trimethyl-7-(3-{[2-(7-oxo-7H-thieno[2,3-c]pyridin-6-yl)ethyl]pyridin-4-ylmethylamino}propoxy)-1,5-dihydrobenzo[b][1,4]diazepine-2,4-dione]	5100
CCN1C(=O)C(C)(C)C(=O)N(C)c2cc(OCCCN(CCc3cccnc3)C(=O)c3ccccc3)ccc21 [Example 633, N-[3-(1-ethyl-3,3,5-trimethyl-2,4-dioxo-2,3,4,5-tetrahydro-1H-benzo[b][1,4]diazepin-7-yloxy)propyl]-N-(2-pyridin-3-ylethyl)benzamide hydrochloride]	8400
CCN1C(=O)C(C)(C)C(=O)N(C)c2cc(OCCCN(CCn3ccc4occc4c3=O)Cc3cccnc3)ccc21 [Example 551, 1-ethyl-3,3,5-trimethyl-7-(3-{[2-(4-oxo-4H-furo[3,2-c]pyridin-5-yl)ethyl]pyridin-3-ylmethylamino}-propoxy)-1,5-dihydrobenzo[b][1,4]diazepine-2,4-dione]	5200
CCN1C(=O)C(C)(C)C(=O)N(C)c2cc(OCCCN(CCc3cccnc3)Cc3ccncc3)ccc21 [Example 8, 1-ethyl-3,3,5-trimethyl-7-{3-[(2-pyridin-3-ylethyl)pyridin-4-ylmethylamino]propoxy}-1,5-dihydrobenzo[b][1,4]diazepine-2,4-dione trihydrochloride]	930

Continued by falling IC50, values first:

IC50 [nM]	Compound
920	CCN1C(=O)C(C)(C)C(=O)N(C)c2cc(OCCCN(CCn3c(=O)ccc4ccccc43)Cc3ccncc3)ccc21 [Example 63, 1-ethyl-3,3,5-trimethyl-7-(3-{[2-(2-oxo-2H-quinolin-1-yl)ethyl]pyridin-4-ylmethylamino}propoxy)-1,5-dihydrobenzo[b][1,4]diazepine-2,4-dione]
690	CCN1C(=O)C(C)(C)C(=O)N(C)c2cc(OCCCN(CCc3cccnc3)Cc3cccc(C#N)c3)ccc21 [Example 229]
460	Cc1ccccc1CN(CCCOc1ccc2c(c1)N(C)C(=O)C(C)(C)C(=O)N2C)CCc1cccnc1 [Example 50, 1,3,3,5-tetramethyl-7-{3-[(2-methylbenzyl)-(2-pyridin-3-ylethyl)amino]propoxy}-1,5-dihydrobenzo[b][1,4]diazepine-2,4-dione dihydrochloride]
250	CCN1C(=O)C(C)(C)C(=O)N(C)c2cc(OCCCN(CCn3ccc4ccccc4c3=O)Cc3ccncc3)ccc21 [Example 23, 1-ethyl-3,3,5-trimethyl-7-(3-{[2-(1-oxo-1H-isoquinolin-2-yl)ethyl]pyridin-4-ylmethylamino}propoxy)-1,5-dihydrobenzo[b][1,4]diazepine-2,4-dione dihydrochloride]
170	CCN1C(=O)C(C)(C)C(=O)N(C)c2cc(OCCCN(CCn3ccc4occc4c3=O)Cc3ccc(C)nc3C)ccc21 [Example 629, 7-(3-{(2,6-dimethylpyridin-3-ylmethyl)-[2-(4-oxo-4H-furo[3,2-c]pyridin-5-yl)ethyl]amino}propoxy)-1-ethyl-3,3,5-trimethyl-1,5-dihydrobenzo[b][1,4]diazepine-2,4-dione dihydrochloride]
